Source: ChEMBL document CHEMBL3392924, “MMV box selection for compounds with potential use in combination with artemisinin using S. cerevisiae”

Test system: Saccharomyces cerevisiae
Assay: Assay utilized the disc diffusion method with the observance of a clear zone indicating inhibition of growth. Synthetic complete medium containing 3% glycerol as a carbon source (SCG) was used in each assay. 10 uL of each compound was added to a paper disc which was placed on SCG and SCG+Artemisinin (0.2 uM) plates seeded with 10e6 yeast cells (WC081 strain: Mat a, leu2 delta 0, lys2 delta 0, ura3 delta 0, his3 delta 1, pdr1 delta::HIS3, pdr3 delta::kanMX4, derived from BY4742, regulators of Multi-drug resistance transporters have been deleted to enhance toxicity of compounds). Plates were incubated at 30 degrees C for 5 days and clear zones were measured. Compounds that produced a larger clear zone in the presence of artemisinin was considered to have an additive interaction with artemisinin. Results are reported as diameter of clear zone on SCG+artemisinin plates - diameter of clear zone on SCG plates without artemisinin.
Type: organism-based
Conditions: in vivo, 120 h

SMILES | Diameter of inhibition zone
CN1CCN(c2ccc(Nc3c4ccccc4nc4ccccc34)cc2)CC1 | 0 mm
CN(C)CCCNc1c2ccccc2nc2ccccc12 | 0 mm
CCN1CCCC1CNc1[nH]cnc2c3cc(Cl)ccc3nc1-2 (centres undefined) | 0 mm
COc1ccc(-c2c(C)nn3c(N)c(C#N)cnc23)cc1OC | 0 mm
CSC1=NC(=Nc2c(C)cccc2C)C2(CCC(C(C)(C)C)CC2)N1c1ccc(Cl)cc1 (centres undefined) | 0 mm
C[n+]1c2ccccc2nc2ccc(NCCO)cc21 | 0 mm
Cc1cc(C)cc(Nc2cc(C)nc3nc(C(F)(F)F)nn23)c1 | 0 mm
O=C(NCC(c1ccsc1)N1CCCCCC1)c1ccc(C(F)(F)F)cc1 (centres undefined) | 0 mm
COc1ccc(-c2cc3c(SCC(=O)Nc4cc(C(F)(F)F)ccc4Cl)nccn3n2)cc1 | 0 mm
Cc1ccc(-c2cc3c(SCC(=O)Nc4cc(C(F)(F)F)ccc4Cl)nccn3n2)cc1 | 0 mm
CCN(CC)CCNc1ncnc2c1[nH]c1ccc(Cl)cc12 | 0 mm
CCOC(=O)c1cnc2ccc(CC)cc2c1O | 0 mm
Cc1ccc(-c2cc3c(nn2)-c2ccccc2C3=O)cc1 | 0 mm
CCN(CC)CCNc1ccnc2cc(Cl)ccc12 | 0 mm
CCCCCC(=O)N1c2ccccc2N=C2CC(c3ccc(OC)c(OC)c3)CC(O)=C2C1c1ccc(C(F)(F)F)cc1 (centres undefined) | 0 mm
Cc1cc(Nc2ccc3ccccc3c2)n2ncnc2n1 | 7 mm
Cc1cc(NCCN2CCCCC2)c2ccc3ccccc3c2n1 | 0 mm
COc1ccc(-n2ccnc2SCC(=O)Nc2cc(C)ccc2C)c(OC)c1 | 0 mm
CCN1CCN(Cc2ccc(NC(=O)c3cc4ccc5cccnc5c4[nH]3)cc2)CC1 | 0 mm
COc1ccc(-c2nc(NC(=O)CS(=O)(=O)c3ccc(F)cc3)sc2C)cc1 | 0 mm
O=C(O)C1Cc2c([nH]c3ccccc23)C(c2ccc(Cl)cc2Cl)N1 (centres undefined) | 0 mm
Cc1ccc(N2C(=O)C3C(C2=O)C2(c4ccccc4)C(=O)C3(c3ccccc3)C(c3ccccc3)=C2c2ccccc2)cc1 (centres undefined) | 0 mm
CCc1c(C)c(=N)c2ccccc2n1C.I | 0 mm
COc1cccc(NC(=O)[C@H](C(C)C)n2c(=O)[nH]c3ccccc3c2=O)c1 | 0 mm
CCOC(=O)c1cn(CC)c2cc(N(C)CCc3ccc(OC)c(OC)c3)c(F)cc2c1=O | 0 mm
CCC(c1ccccc1)c1nn2c(-c3cccs3)nnc2s1 (centres undefined) | 0 mm
CC(C)(C)c1ccc(O)c(CNC2CCCCC2)c1 | 0 mm

SMILES | Diameter of inhibition zone
O=[N+]([O-])c1ccc(C=NNc2nc3ccccc3[nH]2)cc1 | 0 mm
CCOc1cc2c(cc1OCC)C(c1cc(OC)c(O)cc1Cl)NCC2 (centres undefined) | 0 mm
CC1CN(C(=O)c2sc3ccccc3c2Cl)CC(C)O1 (centres undefined) | 0 mm
CN(C)c1ccc(C=Cc2nc(=O)c3ccccc3o2)cc1 | 0 mm
COc1ccc(C2=C(c3ccc(OC)cc3)C3(c4ccccc4)C(=O)C2(c2ccccc2)C2C(=O)N(c4ccc(C)cc4)C(=O)C23)cc1 (centres undefined) | 0 mm
CCOC(=O)c1c(NC(=O)c2ccccc2)sc2c(O)c(CN(CC)CC)ccc12 | 0 mm
CCOC(=O)C1=C(c2ccccc2)N=c2sc(=Cc3cc(C)n(-c4ccc(F)cc4)c3C)c(=O)n2C1c1cccc(OC)c1OC (centres undefined) | 0 mm
CCC1(C)CC(CCNCc2ccccc2O)(c2ccc(C)cc2)CCO1 (centres undefined) | 0 mm
OC(CNC1CCCCC1)Cn1c2ccccc2c2ccccc21 (centres undefined) | 0 mm
Cc1cc(Nc2ccc(C)c(Cl)c2)n2nc(C(F)(F)F)nc2n1 | 0 mm
COc1cccc(C=Cc2nc(=O)c3ccccc3o2)c1OC | 0 mm
CCCN(CCC)CC(O)COc1ccccc1C(=O)Nc1ccccc1 (centres undefined) | 0 mm
Fc1ccc2[nH]c3c(NCCCN4CCOCC4)ncnc3c2c1 | 0 mm
COc1ccc(C(=O)Nc2nonc2-c2ccc(OC)c(OC)c2)cc1Cl | 0 mm
COc1ccc(C=C2SC(=N)N(c3ccccc3OC)C2=O)cc1 | 0 mm
COc1ccc(NC(=O)C2c3ccccc3C(=O)N(CC(C)C)C2c2cccs2)cc1Cl (centres undefined) | 0 mm
CCOC(=O)c1c(C)n(-c2ccc(Cl)cc2)c2ccc(OC(=O)C=Cc3ccccc3)cc12 | 0 mm
COc1ccc2c(c1)OC(O)(C(F)(F)C(F)(F)F)CC2=O (centres undefined) | 0 mm
C=CC12CCN(CC1)C(C(O)c1ccnc3ccc(OC)cc13)C2.Cl (centres undefined) | 0 mm
Cc1ccc(-c2cc3nc4c(c(O)n3n2)CCCC4)cc1 | 0 mm
Cc1cccc(Nc2nc(N)c3ccccc3n2)c1.Cl | 0 mm
CCn1c(CN2CCN(Cc3ccccc3)CC2)nc2cc(NC(=O)c3cccs3)ccc21 | 0 mm
COc1ccccc1CNC(=O)CCn1c(=O)[nH]c2ccccc2c1=O | 0 mm
c1ccc2cc3c(Nc4ccc(N5CCOCC5)cc4)ccnc3cc2c1 | 0 mm
Cc1cc(C)c2c(c1)OCN(Cc1ccccc1Cl)C2 | 0 mm
COc1cc(OC)c(N(C)C(=O)c2cc3c(s2)-c2ccccc2S(=O)(=O)C3)cc1Cl | 0 mm
COc1ccccc1NC1=C(N2CCCCC2)C(=O)c2ccccc2C1=O | 0 mm

SMILES | Diameter of inhibition zone
CCOC(=O)c1cn(CC)c2cc(N3CCCCC3)c(F)cc2c1=O | 0 mm
CCCc1cc(O)c2c3c(c(=O)oc2c1)CN(C)CC3 | 0 mm
Cc1cc(NC(=O)C2c3ccccc3C(=O)N(CC(C)C)C2c2cccs2)no1 (centres undefined) | 0 mm
Cl.Oc1ccccc1CNCC12CC3CC(CC(C3)C1)C2 | 0 mm
CNCCCNc1ccnc2cc(Cl)ccc12 | 0 mm
COc1ccccc1CNC(=O)CCn1c(=O)[nH]c2ccsc2c1=O | 0 mm
COc1ccc(Br)cc1C1Nc2ccc3ccccc3c2C2=C1C(=O)CC(c1ccccc1)C2 (centres undefined) | 0 mm
Cc1cc(C=C2SC(=Nc3ccccc3)N(C3CCCC3)C2=O)c(C)n1-c1ccc(Cl)cc1 | 0 mm
CC1CCN(Cc2ccc(NC(=O)c3cc4ccc5cccnc5c4[nH]3)cc2)CC1 | 0 mm
CCOc1ccc(-c2nonc2NC(=O)c2cccc(C)c2)cc1OCC | 0 mm
CCc1ccc(Nc2cc(C)c3ccc(O)cc3n2)cc1.Cl | 0 mm
COc1ccc2c(=O)cc(C(Cl)(Cl)Cl)oc2c1 | 0 mm
CSc1ccccc1C(=O)Nc1nc(-c2ccccn2)cs1 | 3 mm
COc1ccc(-c2nc3cc(Cc4ccc5[nH]c(-c6ccc(OC)cc6)nc5c4)ccc3[nH]2)cc1 | 0 mm
CCOC(=O)c1ccc2[nH]c(-c3ccccc3)cc(=O)c2c1 | 0 mm
Cc1cc(Nc2ccc(Cl)cc2)n2nc(C(F)(F)F)nc2n1 | 0 mm
COc1ccc(C(C)=O)cc1N1C(=O)C2C(C1=O)C1(c3ccccc3)C(=O)C2(c2ccccc2)C(c2ccc(C)cc2)=C1c1ccc(C)cc1 (centres undefined) | 0 mm
CCCCCCOC(=O)C1=C(C)NC(=O)NC1c1ccccc1F (centres undefined) | 0 mm
Cc1ccc(N2C3c4ccccc4N(S(=O)(=O)c4ccc(C)cc4)C2c2ccccc2N3S(=O)(=O)c2ccc(C)cc2)cc1 | 0 mm
CCCc1c(CC)c(=N)c2ccccc2n1C | 0 mm
Cc1ccc(Nc2nc(NCCO)c3ccccc3n2)cc1C | 0 mm
CCOC(=O)c1cnc2c(C)cc(C)cc2c1Nc1ccc(OC)c(OC)c1 | 0 mm
COc1ccc(NC(=O)C2c3ccccc3C(=O)N(CC(C)C)C2c2cccs2)cc1 (centres undefined) | 0 mm
c1ccc(Cn2c(N=Nc3c(Nc4ccccc4)ccc4ccccc34)nc3ccccc32)cc1 | 1 mm
CN(C)c1ccc(C(O)(c2ccc(N(C)C)cc2)c2ccc(N(C)C)cc2)cc1 [METHYLROSANILINE] | 0 mm
